Key:
RPMI-8226BTZR = experiment: Killing of bortezomib-resistant multiple myeloma cells; format: cell-based
Text: The RPMI-8226BTZR over-expresses β1, β2 and β5 peptides of the 20S subunit. […] However, RPMI-8226BTZR is sensitive to CTR-20, CTR-21 and CTR-32 (FIG. 36).

purified porcine tubulin = experiment: Microtubule polymerization assay; format: biochemical; conditions: 1.0 mM GTP, 1 hour at 37° C.
Procedure: The effects of the tested CTR compounds of the present disclosure on the assembly of purified tubulin were determined using a tubulin polymerization kit according to the manufacturer's instructions (Cytoskeleton Inc., Denver, Colo.). Paclitaxel (provided in the same kit), nocodazole, and colchicine (Santa Cruz, Calif.) were used as controls for the assay. The absorbent-based assay kit is based on the principle that the light scattered by the microtubules is directly proportional to the polymer mass of the microtubules when measured at 37° C. at a wavelength of 340 nm. The fluorescence-based assay kit is on the principle that fluorescent reporter molecules are incorporated into microtubules as the polymerization process being occurred. The fluorescence enhancement was measured for one hour at one-minute intervals, at the excitation of 350 nm and the emission of 430 nm. Absorbance or fluorescence was measured with an automated plate reader (Synergy H4 Hybrid Multi-Mode Microplate Reader, Bio-Tek).

MCF-10A = experiment: SRB-based cytotoxicity assay; format: cell-based; conditions: for IC50: Homo sapiens; for Cell survival rate: MCF10A, 0.39 μM
Procedure: (§1) For (anti)proliferation assays, 4,000-5,000 cells/well of the 96-well clustered dish were incubated for 16 hours, as described previously (Hu et al., 2008; Skehan et al., 1990). After 16 hours, culture medium was replaced with fresh medium containing different dilutions of test compounds dissolved in DMSO. Some wells were treated with 100 μl of 10% trichloroacetic acid (TCA) as a negative control and sham (medium with dimethyl sulfoxide; DMSO) treated cells were used as a positive control. After 72 hours post-incubation, medium was removed and cells were fixed with 10% TCA at 4° C. for 1 hour. TCA was removed and cells were washed with cold tap water, and plate was air-dried, followed by addition of 50 μl of 0.4% SRB staining solution to each well. After 30 minutes incubation, SRB staining solution was removed. Cells were washed with 1% acetic acid solution, and then washed with tap water to remove unbound staining solution, followed by air-drying. 200 μl of 10 mM (pH10.5) trizma base buffer was added to each well to solubilise macromolecules. SRB stained macromolecules were determined at a 540 nm wavelength using an automated plate reader (Synergy H4 Hybrid Multi-Mode Microplate Reader, BioTek, Winooski, Vt.). Cell growth (inhibition) was calculated by the following formula:
(§2) % cells proliferation=[(AT−CT)/(ST−CT)]×100
(§3) wherein AT=absorbance of treated cells, CT=absorbance of negative control cells, and ST=absorbance of sham treated cells. IC50 values were calculated from sigmoidal dose-response curves generated by two independent biological replicates, with quadruplicate in each set by using Graph Pad Prism v.5.04 software. […] The combinational index (CI) was calculated as described previously (Chou 2006). If the CI values were less than, equal to or more than 1, it indicates a synergistic, additive or antagonistic effect respectively (Chou 2006). CI values were determined from four independent experiments.

HeLa = experiment: SRB-based cytotoxicity assay; format: cell-based; conditions: for IC50: HeLa
Procedure: as §1, §2, §3

184B5 = experiment: SRB-based cytotoxicity assay; format: cell-based; conditions: Homo sapiens, 184B5 non-cancer
Procedure: as §1, §2, §3

RPMI-8226 (myeloma) = experiment: SRB-based cytotoxicity assay; format: cell-based; conditions: 72 hours
Procedure: as §1, §2, §3

[1] = test system: MDA-MB-231 human metastatic breast cancer cells; experiment: Anti-tumor activity in xenograft mice; format: in vivo; conditions: Tax 10 mg/kg I.V. once/week, CTR 30 mg/kg I.P. every 3 days, or Tax 5 + CTR 15 mg/kg once/week
Procedure: Five-week old female CD-1 and ATH490 (strain code 490) athymic nude mice were purchased from Charles River (Quebec, Canada). The MDA-MB-231 human metastatic breast cancer cells were obtained from the American Tissue Culture Collection (ATCC, Manassas, Va., USA). Cells were maintained under humidified conditions at 37° C. and 5% CO2 in DMEM high glucose medium (ATCC) supplemented with 10% fetal bovine serum and antibiotics.
For paclitaxel treatments, 40 mg/ml stock solution of paclitaxel (Sigma, MO) was prepared in DMSO. Just before administration to mice, the paclitaxel stock solution was diluted ten-fold in a buffer containing 10% DMSO, 12.5% Cremophor, 12.5% ethanol, and 65% saline-based diluent (0.9% sodium chloride, 5% polyethylene glycol, and 0.5% tween-80) which is defined as vehicle (Huang et al., 2006). Alanine transaminase (ALT, SUP6001-c)/Aspartate transaminase (AST, SUP6002-c) color endpoint assay kits were purchased from ID Labs Biotechnology (London, Ontario, Canada). Elevation of ALT and AST levels in serum samples was used as an indicator of liver damage/injury.
To determine the anti-tumor activity of CTR compounds in animals, a xenograft model of human breast cancer cells in athymic nude mice was established. Exponentially growing MDA-MB-231 metastatic breast cancer cells were harvested and counted for inoculation into mice. Each mouse was subcutaneously injected at the flank with 10×10^6 cells in 0.2 ml ice cold 1×PBS. When tumor size reached 4-5 mm in diameter (n=4-5 per group), mice were randomly assigned into several groups as described herein.
Animals were monitored for food and water consumption every day, and their body weights and tumor volumes were measured twice per week. Tumor volumes were measured with a digital caliper and were determined by using the following formula: ½ length×width^2. Blood samples were collected via cardiac puncture and processed further for ALT and AST measurements. The animals were then immediately euthanized by carbon dioxide. Tumors and vital organs (spleen, kidney, liver and lung) were collected and fixed in 10% buffered formalin at 4° C. overnight before being processed for paraffin embedding. The paraffin-embedded blocks were then cut into 4-5 μm thick sections. Each section of tumors and organs was stained with hematoxylin and eosin (H&E).

[2] = MCF-10A, MCF10A non-cancer, 72 hours, Table 4
[3] = MCF-10A non-cancer, SRB, Table 2

SMILES	sensitivity of RPMI-8226BTZR (RPMI-8226BTZR)	effect on tubulin/microtubule polymerization (purified porcine tubulin)	IC50 (MCF-10A; [2])	IC50 (HeLa; 72 hours, Table 4)	IC50 (184B5; 72 hours, Table 4)	IC50 (RPMI-8226 (myeloma); Table 4)	tumor size (volume) ([1]; Day 0)	tumor size (volume) ([1]; Day 6)	tumor size (volume) ([1]; Day 14)	tumor size (volume) ([1]; Day 17)	tumor size (volume) ([1]; Day 20)	tumor size (volume) ([1]; Day 24)	tumor size (volume) ([1]; Day 27)	tumor size (volume) ([1]; Day 30)	IC50 (MCF-10A; [3])	Cell survival rate (MCF-10A; 72 hours)	preferentially kill cancer over non-cancer cells (HeLa; HeLa versus MCF-10A)	IC50 (HeLa; Homo sapiens, SRB, Table 2)	IC50 (184B5; SRB, Table 2)	IC50 (RPMI-8226 (myeloma); Homo sapiens)
CCOc1ccccc1C(=O)/C=C/c1cc2ccccc2[nH]c1=O [CTR-32, (E)-3-(3-(2-ethoxyphenyl)-3-oxoprop-1-enyl)quinolin-2(1H)-one]	sensitive	microtubule polymerization inhibitors	0.0301 ± 0.00161 µM	0.0129 ± 0.00035 µM	0.052 ± 0.00735 µM	0.00629 ± 0.00143 µM														
COc1ccc2[nH]c(=O)c(/C=C/C(=O)c3ccccc3OC)cc2c1 [CTR-20, (E)-6-Methoxy-3-(3-(2-methoxyphenyl)-3-oxoprop-1-enyl) quinolin-2(1H)-one]	sensitive	inhibited tubulin polymerization					92.51 mm^3	69.89 mm^3	84.64 mm^3	97.11 mm^3	97.22 mm^3	106.26 mm^3	124.88 mm^3	140.63 mm^3	2.37 ± 0.21 µM	75%	≤ 24 times	0.1 ± 0.02 µM	1.24 ± 0.06 µM	0.23 µM
CC(=O)O[C@H]1C(=O)[C@@]2(C)[C@H]([C@H](OC(=O)c3ccccc3)[C@]3(O)C[C@H](OC(=O)[C@H](O)[C@@H](NC(=O)c4ccccc4)c4ccccc4)C(C)=C1C3(C)C)[C@]1(OC(C)=O)CO[C@@H]1C[C@@H]2O [Paclitaxel, reference compound]							91.84 mm^3	90.11 mm^3	94.66 mm^3	92.33 mm^3	81.66 mm^3	95.61 mm^3	139.41 mm^3	170.36 mm^3						
COc1ccccc1C(=O)/C=C/c1cc2cccc(OC)c2[nH]c1=O [CTR-21, (E)-8-methoxy-3-(3-(2-methoxyphenyl)-3-oxoprop-1-enyl) quinolin-2(1H)-one]	sensitive	microtubule polymerization inhibitors	0.0203 ± 0.00247 µM	0.0119 ± 0.0014 µM	0.037 ± 0.0025 µM	0.00534 ± 0.00089 µM														
COc1ccccc1C(=O)/C=C/c1cc2ccccc2[nH]c1=O [CTR-17, (E)-3-(3-(2-Methoxyphenyl)-3-oxoprop-1-enyl)quinolin-2(1H)-one]		inhibited tubulin polymerization					86.71 mm^3	63.99 mm^3	90.07 mm^3	128.36 mm^3	134.76 mm^3	160.86 mm^3	189.45 mm^3	209.84 mm^3	3.95 ± 0.14 µM	95%		0.33 ± 0.06 µM	3.49 ± 0.03 µM	0.36 ± 0.04 µM
